{"source": "patent US20240059755A1", "about": "“NANOLIPOPROTEIN-POLYPEPTIDE CONJUGATES AND COMPOSITIONS, SYSTEMS, AND METHODS USING SAME” (Genentech, Inc., priority 2020, published 2024)", "system": "trypsin", "assay": "Trypsin enzymatic assay (L-Arg-AMC substrate)", "format": "biochemical", "protocol": "Briefly, the peptide NLP conjugates were incubated at the indicated concentration with trypsin (2 nM) for 30 min at room temperature. The substrate L-Arginine-7-amido-4-methylcoumarin (L-Arg-AMC) (75 μM) was added to the mixture and the proteolytic activity was measured immediately. Samples were run in triplicate and repeated twice. The data were analyzed using KaleidaGraph software."}
{"compound": "CCCCCCCCCCCCCCCC(=O)NCCCC[C@H](N)C(=O)NCC(=O)N[C@@H](CO)C(=O)NCC(=O)N[C@@H](CO)C(=O)NCC(=O)N[C@H]1CSSC[C@@H]2NC(=O)CNC(=O)[C@H](C)NC(=O)[C@H](CC(C)C)NC(=O)[C@@H]3CSSC[C@@H](C(=O)NCC(=O)O)NC(=O)[C@H](Cc4ccccc4)NC(=O)CNC(=O)[C@H](CC(N)=O)NC(=O)[C@@H]4CCCN4C(=O)CNC(=O)[C@H](CSSC[C@H](NC(=O)[C@H](CCCNC(=N)N)NC(=O)[C@H](CCSC)NC(=O)[C@H](CC(C)C)NC(=O)[C@H]([C@@H](C)CC)NC(=O)[C@H](CCCNC(=N)N)NC(=O)[C@@H]4CCCN4C1=O)C(=O)N[C@@H](CCCCN)C(=O)N[C@@H](CCC(N)=O)C(=O)N[C@@H](CC(=O)O)C(=O)N[C@@H](CO)C(=O)N[C@@H](CC(=O)O)C(=O)N3)NC(=O)[C@H](C(C)C)NC2=O", "note": "[CKP-C16]", "values": [{"measurement": "trypsin inhibitory activity", "value": "inhibitory potency"}]}
